Our source for the Ki values is patent US8575186B2, “Epiminocycloalkyl[b] indole derivatives as serotonin sub-type 6 (5-HT6) modulators and uses thereof” (Albany Molecular Research, Inc., priority 2009, dated 2013).

Broadly, the pKi is the negative decadic logarithm of the Ki, by convention in mol/L.

pKi: −log10 of the molar value. Counter-ions that a name gives are not always drawn.

Chain of human 5-HT6 receptor (P50406 whole entry): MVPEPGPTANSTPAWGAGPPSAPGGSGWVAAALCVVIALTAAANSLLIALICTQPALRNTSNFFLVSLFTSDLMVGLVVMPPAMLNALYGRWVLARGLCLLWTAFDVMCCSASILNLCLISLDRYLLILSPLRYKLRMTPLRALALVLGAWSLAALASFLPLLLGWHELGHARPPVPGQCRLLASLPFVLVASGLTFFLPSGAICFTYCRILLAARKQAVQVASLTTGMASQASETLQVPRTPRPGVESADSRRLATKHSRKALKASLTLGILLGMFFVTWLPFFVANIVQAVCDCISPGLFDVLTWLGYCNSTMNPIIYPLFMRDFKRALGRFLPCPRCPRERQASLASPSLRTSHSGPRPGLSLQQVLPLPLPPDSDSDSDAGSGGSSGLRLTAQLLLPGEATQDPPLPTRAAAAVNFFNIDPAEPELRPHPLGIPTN

The first assay has as its target human 5-HT6 receptor (Homo sapiens (Human), UniProt P50406). Briefly: radioligand binding assay (SPA format), [N-methyl-3H]-LSD. Conditions: read-out: human 5HT6 Ki; human 5-HT6 receptor membranes, 10 nM [3H]-LSD.
For the compound `Cn1c2c(c3cc(S(=O)(=O)c4ccc(CN)cc4)ccc31)C1CCC(C2)N1` (stereo not shown) [Example 33, 2-(4-Aminomethylphenyl)sulfonyl-5-methyl-5,6,7,8,9,10-hexahydro-7,10-epiminocyclohepta[b]indole dihydrochloride], the negative-log Ki (pKi) is 7.82.
Regarding `CN(C)Cc1ccc(S(=O)(=O)c2ccc3c(c2)c2c(n3C)CC3CCC2N3)cc1` (stereo not shown) [Example 34, 2-[4-(N,N-Dimethylaminomethyl)phenyl]sulfonyl-5-methyl-5,6,7,8,9,10-hexahydro-7,10-epiminocyclohepta[b]indole dihydrochloride], the pKi is 8.32.
As to `Cn1c2c(c3cc(S(=O)(=O)n4ccc5c(F)cccc54)ccc31)C1CCC(C2)N1` (stereo not shown) [Example 64, 2-[1-(4-Fluoro)-indole]sulfonyl-5-methyl-5,6,7,8,9,10-hexahydro-7,10-epiminocyclohepta[b]indole hydrochloride], the negative-log Ki (pKi) was 8.25.
With `CN1C2CCC1c1c(n(C)c3ccc(S(=O)(=O)c4ccccc4)cc13)C2` (stereo not shown) [Example 69, 2-Phenylsulfonyl-5-methyl-5,6,7,8,9,10-hexahydro-7,10-N-methyl-epiminocyclohepta[b]indole hydrochloride], the pKi was 8.11.
The same measure, in the same setting: next, `CCc1cc(S(=O)(=O)c2ccccc2)cc2c3c(n(C)c12)CC1CCC3N1` (stereo not shown) [Example 80, 2-Phenylsulfonyl-4-ethyl-5-methyl-5,6,7,8,9,10-hexahydro-7,10-epiminocyclohepta[b]indole hydrochloride]: 7.77; `Cn1c2c(c3cc(S(=O)(=O)c4ccccc4)ccc31)C1CCCC(C2)N1` (stereo not shown) [Example 92, 2-(Phenylsulfonyl)-5-methyl-6,7,8,9,10,11-hexahydro-5H-7,11-epiminocycloocta[b]indole hydrochloride]: 6.82; `Cn1c2c(c3cc(S(=O)(=O)c4ccc5cc[nH]c5c4)ccc31)C1CCC(C2)N1` (stereo not shown) [Example 95]: 8.24.
For the compound `Cn1c2c(c3cc(S(=O)(=O)c4cc(F)ccn4)ccc31)C1CCC(C2)N1` (stereo not shown) [Example 96], the negative-log Ki (pKi) was 6.47.
As for `Cn1c2c(c3cc(S(=O)(=O)c4cc(Cl)ccn4)ccc31)C1CCC(C2)N1` (stereo not shown) [Example 97], the pKi is 6.98.
The same measure, in the same setting: then `Cn1c2c(c3cc(S(=O)(=O)c4cccc5cc[nH]c45)ccc31)C1CCC(C2)N1` (stereo not shown) [Example 99], with 8.35; and `Cn1c2c(c3cc(S(=O)(=O)c4cnc5[nH]ccc5c4)ccc31)C1CCC(C2)N1` (stereo not shown) [Example 101], with 8.54.
In the case of `Cn1c2c(c3cc(S(=O)(=O)c4cn(Cc5ccccc5)c5ccccc45)ccc31)C1CCC(C2)N1` (stereo not shown) [Example 102], the pKi was 9.15.
Same read-out and setting: then `Cn1c2c(c3cc(S(=O)(=O)c4cn(-c5ccccc5)c5ccccc45)ccc31)C1CCC(C2)N1` (stereo not shown) [Example 103], with 8.03.
`Cn1c2c(c3cc(S(=O)(=O)c4ccc5sccc5c4)ccc31)C1CCC(C2)N1` (stereo not shown) [Example 104]: the negative-log Ki (pKi) is 8.30.
Same read-out and setting: next, `Cn1c2c(c3cc(S(=O)(=O)c4ccccc4O)ccc31)C1CCC(C2)N1` (stereo not shown) [Example 105]: 7.00; `Cn1c2c(c3cc(S(=O)(=O)n4ccc5ncccc54)ccc31)C1CCC(C2)N1` (stereo not shown) [Example 107]: 7.11; `Cn1c2c(c3cc(S(=O)(=O)c4cccc5ncccc45)ccc31)C1CCC(C2)N1` (stereo not shown) [Example 110]: 6.83.
`Cn1c2c(c3cc(S(=O)(=O)c4cccc5cnccc45)ccc31)C1CCC(C2)N1` (stereo not shown) [Example 111]: the negative-log Ki (pKi) is 7.66.
On the same count and under the same terms, then `Cn1c2c(c3cc(S(=O)(=O)c4ccccc4F)ccc31)C1CCC(C2)N1` (stereo not shown) [Example 112], with 8.34; and `Cn1c2c(c3cc(S(=O)(=O)c4cccc5cccnc45)ccc31)C1CCC(C2)N1` (stereo not shown) [Example 113], with 7.64.
`Cn1c2c(c3cc(S(=O)(=O)c4ccccc4Cl)ccc31)C1CCC(C2)N1` (stereo not shown) [Example 115]: the negative logarithm of the Ki (pKi) is 8.32.
Consider `Cn1c2c(c3cc(S(=O)(=O)c4ccc5occc5c4)ccc31)C1CCC(C2)N1` (stereo not shown) [Example 116], for which the negative-log Ki (pKi) is 7.70.
On the same count and under the same terms, then `CC(C)n1ccc2cc(S(=O)(=O)c3ccc4c(c3)c3c(n4C)CC4CCC3N4)ccc21` (stereo not shown) [Example 117], with 8.36; and `Cn1c2c(c3cc(S(=O)(=O)c4ccc5c(ccn5CCO)c4)ccc31)C1CCC(C2)N1` (stereo not shown) [Example 119], with 6.64; and `COCCn1ccc2cc(S(=O)(=O)c3ccc4c(c3)c3c(n4C)CC4CCC3N4)ccc21` (stereo not shown) [Example 120], with 7.19.
In the case of `Cn1c2c(c3cc(S(=O)(=O)c4cccc(OCc5ccccc5)c4)ccc31)C1CCC(C2)N1` (stereo not shown) [Example 121], the negative-log Ki (pKi) is 8.72.
Take `Cn1c2c(c3cc(S(=O)(=O)c4cc(C(F)(F)F)c5[nH]ccc5c4)ccc31)C1CCC(C2)N1` (stereo not shown) [Example 123]: the negative-log Ki (pKi) is 9.33.
Consider `Cn1c2c(c3cc(S(=O)(=O)c4cc(F)c5[nH]ccc5c4)ccc31)C1CCC(C2)N1` (stereo not shown) [Example 124], for which the pKi was 9.48.
The same measure, in the same setting: next, `Cn1c2c(c3cc(S(=O)(=O)c4cccc(-c5cc[nH]n5)c4)ccc31)C1CCC(C2)N1` (stereo not shown) [Example 125]: 6.61; `Cc1cc2ccccc2n1S(=O)(=O)c1ccc2c(c1)c1c(n2C)CC2CCC1N2` (stereo not shown) [Example 126]: 8.14; `Cn1c2c(c3cc(S(=O)(=O)n4ccc5ccc(C#N)cc54)ccc31)C1CCC(C2)N1` (stereo not shown) [Example 127]: 8.82.
In the case of `Cn1c2c(c3cc(S(=O)(=O)n4cc(F)c5ccccc54)ccc31)C1CCC(C2)N1` (stereo not shown) [Example 129], the pKi is 8.57.
On the same count and under the same terms, then `Cn1c2c(c3cc(S(=O)(=O)c4cccc5ccncc45)ccc31)C1CCC(C2)N1` (stereo not shown) [Example 131], with 7.89; and `Cn1c2c(c3cc(S(=O)(=O)c4ccnc5ccccc45)ccc31)C1CCC(C2)N1` (stereo not shown) [Example 132], with 7.41.
Same read-out and setting: then `Cn1c2c(c3cc(S(=O)(=O)c4cccc(OCc5ccncc5)c4)ccc31)C1CCC(C2)N1` (stereo not shown) [Example 133], with 7.96; and `CN1C2CCC1c1c(n(C)c3ccc(S(=O)(=O)c4ccc5[nH]ccc5c4)cc13)C2` (stereo not shown) [Example 134], with 9.59.
Consider `CC(C)N1C2CCC1c1c(n(C)c3ccc(S(=O)(=O)c4ccc5[nH]ccc5c4)cc13)C2` (stereo not shown) [Example 135], for which the negative logarithm of the Ki (pKi) was 8.49.
For the compound `COCCN1C2CCC1c1c(n(C)c3ccc(S(=O)(=O)c4ccc5[nH]ccc5c4)cc13)C2` (stereo not shown) [Example 136], the pKi was 8.85.
The same measure, in the same setting: then `Cn1c2c(c3cc(S(=O)(=O)c4ccc5[nH]ccc5c4)ccc31)C1CCC(C2)N1Cc1ccccc1` (stereo not shown) [Example 137], with 8.92; and `Cn1c2c(c3cc(S(=O)(=O)c4ccc5[nH]ccc5c4)ccc31)C1CCC(C2)N1CCO` (stereo not shown) [Example 138], with 8.92; and `Cn1c2c(c3cc(S(=O)(=O)c4csc5ccccc45)cc(F)c31)C1CCC(C2)N1` (stereo not shown) [Example 139], with 9.33.
With `Cc1cc(S(=O)(=O)c2cn(C)c3ccccc23)cc2c3c(n(C)c12)CC1CCC3N1` (stereo not shown) [Example 140], the pKi is 9.25.
Turning to `Cc1cc(S(=O)(=O)c2csc3ccccc23)cc2c3c(n(C)c12)CC1CCC3N1` (stereo not shown) [Example 141], the pKi is 9.54.
For `Cn1c2c(c3cc(S(=O)(=O)c4ccccc4)cc(C#N)c31)C1CCC(C2)N1` (stereo not shown) [Example 142], the pKi was 6.94.
Turning to `COc1cc(S(=O)(=O)c2ccc3[nH]ccc3c2)cc2c3c(n(C)c12)CC1CCC3N1` (stereo not shown) [Example 145], the pKi is 9.51.
Take `COc1cc(S(=O)(=O)c2cccc(OCc3ccccc3)c2)cc2c3c(n(C)c12)CC1CCC3N1` (stereo not shown) [Example 147]: the negative-log Ki (pKi) was 8.85.
On the same count and under the same terms, then `COc1cc(S(=O)(=O)n2ncc3ccccc32)cc2c3c(n(C)c12)CC1CCC3N1` (stereo not shown) [Example 148], with 8.89; and `COc1cc(S(=O)(=O)n2cc(C#N)c3ccccc32)cc2c3c(n(C)c12)CC1CCC3N1` (stereo not shown) [Example 149], with 8.92.
`Cn1c2c(c3cc(S(=O)(=O)c4ccccc4)cc(OC(F)(F)F)c31)C1CCC(C2)N1` (stereo not shown) [Example 150]: the negative logarithm of the Ki (pKi) is 7.15.
In the case of `CN(C)C(=O)COc1cc(S(=O)(=O)c2ccccc2)cc2c3c(n(C)c12)CC1CCC3N1` (stereo not shown) [Example 153], the negative-log Ki (pKi) is 6.24.
Still for that read-out and setting: then `Cn1c2c(c3cc(S(=O)(=O)c4ccccc4)cc(OCc4ccccn4)c31)C1CCC(C2)N1` (stereo not shown) [Example 154], with 7.10; and `Cn1c2c(c3cc(S(=O)(=O)c4ccccc4)cc(OCc4cccnc4)c31)C1CCC(C2)N1` (stereo not shown) [Example 155], with 6.89; and `Cn1c2c(c3cc(S(=O)(=O)c4ccccc4)cc(N4CCCC4)c31)C1CCC(C2)N1` (stereo not shown) [Example 156], with 7.28.
For the compound `Cn1c2c(c3cc(S(=O)(=O)c4cccc(Cl)c4)ccc31)C1CCC(C2)N1` (stereo not shown) [Example 157], the pKi is 8.57.
`Cn1cc(S(=O)(=O)c2ccc3c(c2)c2c(n3C)CC3CCC2N3)c2ccccc21` (stereo not shown) [Example 165]: the pKi was 9.09.
In the case of `Cn1cc(S(=O)(=O)c2ccc3c(c2)c2c(n3C)CC3CCC2N3)c2ccccc21` (stereo not shown) [Example 166], the negative-log Ki (pKi) was 9.39.
The same measure, in the same setting: next, `Cn1c2c(c3cc(S(=O)(=O)c4ccc5sccc5c4)ccc31)C1CCC(C2)N1` (stereo not shown) [Example 167]: 8.12; `Cn1c2c(c3cc(S(=O)(=O)c4ccc5sccc5c4)ccc31)C1CCC(C2)N1` (stereo not shown) [Example 168]: 8.48.
As for `Cn1c2c(c3cc(S(=O)(=O)c4cccc5cccnc45)ccc31)C1CCC(C2)N1` (stereo not shown) [Example 169], the negative-log Ki (pKi) was 7.57.
The same measure, in the same setting: next, `Cn1c2c(c3cc(S(=O)(=O)c4cccc5cccnc45)ccc31)C1CCC(C2)N1` (stereo not shown) [Example 170]: 7.77; `Cn1c2c(c3cc(S(=O)(=O)c4ccc(C#N)cc4)ccc31)C1CCC(C2)N1` (stereo not shown) [Example 177]: 6.13.
On the same count and under the same terms, next, `Cn1c2c(c3cc(S(=O)(=O)c4ccc(C#N)cc4)ccc31)C1CCC(C2)N1` (stereo not shown) [Example 178]: 6.34; `CC(C)n1c2c(c3cc(S(=O)(=O)c4ccccc4)ccc31)C1CCC(C2)N1` (stereo not shown) [Example 181]: 6.55.

Staying with this assay, now noted: read-out: human 5HT6 Ki; human 5-HT6 receptor membranes, 10 nM [3H]-LSD; hydrochloride.
For the compound `Cn1c2c(c3cc(S(=O)(=O)c4cccc(Cl)c4)ccc31)C1CCC(C2)N1` (stereo not shown) [Example 36, 2-(3-Chlorophenyl)sulfonyl-5-methyl-5,6,7,8,9,10-hexahydro-7,10-epiminocyclohepta[b]indole hydrochloride], the negative logarithm of the Ki (pKi) is 8.74.
